In ChEMBL document CHEMBL5291721, “A preclinical secondary pharmacology resource illuminates target-adverse drug reaction associations of marketed drugs” (Nat Commun, 2023) one finds AC50 data, which are given here for one compound.

What is called AC50 is the midpoint of the concentration-response curve, whichever way the signal moves.

One experiment deals with Mu-type opioid receptor (Homo sapiens, UniProt P35372).
For experiment [1], the target named is Gamma-aminobutyric acid receptor subunit alpha-1/alpha-2/beta-2/gamma-2 (Homo sapiens, UniProt P14867+P18507+P47869+P47870). It is filed as protein-complex assay.
Gamma-aminobutyric acid receptor subunit alpha-1/alpha-2/beta-2/gamma-2, sequence (P14867 whole entry): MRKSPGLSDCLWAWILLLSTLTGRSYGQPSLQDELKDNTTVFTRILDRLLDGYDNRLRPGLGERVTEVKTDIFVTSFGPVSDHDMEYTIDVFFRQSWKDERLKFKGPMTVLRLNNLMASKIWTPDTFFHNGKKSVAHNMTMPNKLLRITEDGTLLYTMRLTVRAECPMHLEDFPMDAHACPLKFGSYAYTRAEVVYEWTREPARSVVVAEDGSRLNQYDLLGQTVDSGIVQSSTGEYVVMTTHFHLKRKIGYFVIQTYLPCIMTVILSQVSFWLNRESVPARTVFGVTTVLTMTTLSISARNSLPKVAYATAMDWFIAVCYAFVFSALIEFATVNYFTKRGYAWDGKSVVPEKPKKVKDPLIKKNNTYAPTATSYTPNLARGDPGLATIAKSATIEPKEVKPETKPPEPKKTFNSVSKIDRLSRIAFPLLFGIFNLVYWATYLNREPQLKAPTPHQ
Gamma-aminobutyric acid receptor subunit alpha-1/alpha-2/beta-2/gamma-2, sequence (P47870 whole entry): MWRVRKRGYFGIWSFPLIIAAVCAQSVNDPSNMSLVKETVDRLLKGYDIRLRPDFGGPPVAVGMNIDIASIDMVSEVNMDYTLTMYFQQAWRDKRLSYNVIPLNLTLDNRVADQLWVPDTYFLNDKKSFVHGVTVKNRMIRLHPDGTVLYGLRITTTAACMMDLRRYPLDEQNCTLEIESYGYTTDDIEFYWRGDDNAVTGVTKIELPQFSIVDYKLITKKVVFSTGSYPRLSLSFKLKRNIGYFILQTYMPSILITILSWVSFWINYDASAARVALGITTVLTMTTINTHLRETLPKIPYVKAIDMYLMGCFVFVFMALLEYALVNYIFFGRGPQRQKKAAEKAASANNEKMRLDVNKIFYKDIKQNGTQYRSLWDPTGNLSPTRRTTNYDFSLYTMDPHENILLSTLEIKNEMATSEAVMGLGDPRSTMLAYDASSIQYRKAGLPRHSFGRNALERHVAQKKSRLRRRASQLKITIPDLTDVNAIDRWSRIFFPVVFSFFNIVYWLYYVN
Gamma-aminobutyric acid receptor subunit alpha-1/alpha-2/beta-2/gamma-2, sequence (P18507 whole entry): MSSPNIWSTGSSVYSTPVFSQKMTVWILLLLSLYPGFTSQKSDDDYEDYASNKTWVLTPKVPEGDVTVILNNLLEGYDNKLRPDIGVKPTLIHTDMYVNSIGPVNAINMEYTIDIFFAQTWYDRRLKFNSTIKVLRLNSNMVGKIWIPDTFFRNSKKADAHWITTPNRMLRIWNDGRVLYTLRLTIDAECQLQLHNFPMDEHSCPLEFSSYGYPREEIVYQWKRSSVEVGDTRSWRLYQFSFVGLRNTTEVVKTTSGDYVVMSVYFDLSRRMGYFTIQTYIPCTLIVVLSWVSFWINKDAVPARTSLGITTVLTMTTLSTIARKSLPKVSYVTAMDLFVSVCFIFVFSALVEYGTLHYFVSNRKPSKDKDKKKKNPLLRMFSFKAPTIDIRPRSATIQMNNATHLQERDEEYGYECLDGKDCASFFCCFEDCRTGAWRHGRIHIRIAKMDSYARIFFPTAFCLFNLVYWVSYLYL
Gamma-aminobutyric acid receptor subunit alpha-1/alpha-2/beta-2/gamma-2, sequence (P47869 whole entry): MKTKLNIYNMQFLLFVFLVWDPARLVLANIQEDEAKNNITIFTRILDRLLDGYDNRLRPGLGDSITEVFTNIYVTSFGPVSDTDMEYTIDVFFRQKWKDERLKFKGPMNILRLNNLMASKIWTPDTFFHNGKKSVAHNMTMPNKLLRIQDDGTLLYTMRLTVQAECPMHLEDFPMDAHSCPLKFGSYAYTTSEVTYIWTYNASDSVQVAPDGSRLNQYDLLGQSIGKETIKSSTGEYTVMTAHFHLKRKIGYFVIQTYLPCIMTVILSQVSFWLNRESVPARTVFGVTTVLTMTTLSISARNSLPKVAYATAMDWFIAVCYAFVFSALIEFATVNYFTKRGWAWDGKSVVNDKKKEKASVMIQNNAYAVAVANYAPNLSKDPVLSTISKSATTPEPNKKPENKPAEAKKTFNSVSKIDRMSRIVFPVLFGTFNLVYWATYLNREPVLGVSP
A further experiment concerns the target Adenosine receptor A2a (Homo sapiens, UniProt P29274).
Experiment [2] has as its target 3',5'-cyclic-AMP phosphodiesterase 4D (Homo sapiens, UniProt Q08499). It is filed as functional.
Experiment [3] addresses Sodium-dependent noradrenaline transporter (Homo sapiens, UniProt P23975).
Experiment [4] has as its target Beta-2 adrenergic receptor (Homo sapiens, UniProt P07550).
In experiment [5] the target is T1, Amine oxidase [flavin-containing] A (Homo sapiens, UniProt P21397).
T1 sequence (P21397 whole entry): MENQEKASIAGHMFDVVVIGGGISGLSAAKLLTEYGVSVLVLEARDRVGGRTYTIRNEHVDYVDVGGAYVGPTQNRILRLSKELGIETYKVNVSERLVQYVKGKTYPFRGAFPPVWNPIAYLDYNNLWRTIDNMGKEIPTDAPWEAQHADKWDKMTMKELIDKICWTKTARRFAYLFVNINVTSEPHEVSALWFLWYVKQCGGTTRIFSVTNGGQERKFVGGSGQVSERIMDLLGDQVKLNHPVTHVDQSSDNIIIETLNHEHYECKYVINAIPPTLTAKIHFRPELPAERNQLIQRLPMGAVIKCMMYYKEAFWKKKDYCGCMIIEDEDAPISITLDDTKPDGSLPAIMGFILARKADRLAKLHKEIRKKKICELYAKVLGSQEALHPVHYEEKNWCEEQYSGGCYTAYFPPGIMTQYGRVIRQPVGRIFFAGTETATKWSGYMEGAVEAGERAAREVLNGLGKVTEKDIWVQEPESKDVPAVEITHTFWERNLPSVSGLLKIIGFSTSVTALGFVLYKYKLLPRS
It is filed as functional.

The target in experiment [6] is Gamma-aminobutyric acid receptor subunit alpha-1 (Rattus norvegicus, UniProt P62813).
Experiment [7] addresses cGMP-inhibited 3',5'-cyclic phosphodiesterase 3A (Homo sapiens, UniProt Q14432). It is filed as functional.
Experiment [8] addresses Sodium-dependent dopamine transporter (Homo sapiens, UniProt Q01959).
Experiment [9] concerns the target Vascular endothelial growth factor receptor 2 (Homo sapiens, UniProt P35968). It is filed as functional.

Molecules are shown by their SMILES.
Also: assay procedure not described here.

Beta-2 adrenergic receptor, sequence (P07550 whole entry): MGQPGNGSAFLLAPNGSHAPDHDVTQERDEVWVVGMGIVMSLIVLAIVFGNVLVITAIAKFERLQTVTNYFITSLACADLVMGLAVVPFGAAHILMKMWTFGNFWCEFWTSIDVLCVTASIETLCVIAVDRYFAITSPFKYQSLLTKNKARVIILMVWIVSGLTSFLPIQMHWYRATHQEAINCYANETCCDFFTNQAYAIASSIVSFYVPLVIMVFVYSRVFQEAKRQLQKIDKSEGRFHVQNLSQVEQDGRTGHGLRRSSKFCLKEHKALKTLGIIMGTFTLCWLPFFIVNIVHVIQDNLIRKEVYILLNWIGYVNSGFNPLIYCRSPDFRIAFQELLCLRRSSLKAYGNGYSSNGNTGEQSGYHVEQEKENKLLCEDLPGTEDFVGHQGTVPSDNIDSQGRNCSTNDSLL
Vascular endothelial growth factor receptor 2, sequence (P35968 whole entry): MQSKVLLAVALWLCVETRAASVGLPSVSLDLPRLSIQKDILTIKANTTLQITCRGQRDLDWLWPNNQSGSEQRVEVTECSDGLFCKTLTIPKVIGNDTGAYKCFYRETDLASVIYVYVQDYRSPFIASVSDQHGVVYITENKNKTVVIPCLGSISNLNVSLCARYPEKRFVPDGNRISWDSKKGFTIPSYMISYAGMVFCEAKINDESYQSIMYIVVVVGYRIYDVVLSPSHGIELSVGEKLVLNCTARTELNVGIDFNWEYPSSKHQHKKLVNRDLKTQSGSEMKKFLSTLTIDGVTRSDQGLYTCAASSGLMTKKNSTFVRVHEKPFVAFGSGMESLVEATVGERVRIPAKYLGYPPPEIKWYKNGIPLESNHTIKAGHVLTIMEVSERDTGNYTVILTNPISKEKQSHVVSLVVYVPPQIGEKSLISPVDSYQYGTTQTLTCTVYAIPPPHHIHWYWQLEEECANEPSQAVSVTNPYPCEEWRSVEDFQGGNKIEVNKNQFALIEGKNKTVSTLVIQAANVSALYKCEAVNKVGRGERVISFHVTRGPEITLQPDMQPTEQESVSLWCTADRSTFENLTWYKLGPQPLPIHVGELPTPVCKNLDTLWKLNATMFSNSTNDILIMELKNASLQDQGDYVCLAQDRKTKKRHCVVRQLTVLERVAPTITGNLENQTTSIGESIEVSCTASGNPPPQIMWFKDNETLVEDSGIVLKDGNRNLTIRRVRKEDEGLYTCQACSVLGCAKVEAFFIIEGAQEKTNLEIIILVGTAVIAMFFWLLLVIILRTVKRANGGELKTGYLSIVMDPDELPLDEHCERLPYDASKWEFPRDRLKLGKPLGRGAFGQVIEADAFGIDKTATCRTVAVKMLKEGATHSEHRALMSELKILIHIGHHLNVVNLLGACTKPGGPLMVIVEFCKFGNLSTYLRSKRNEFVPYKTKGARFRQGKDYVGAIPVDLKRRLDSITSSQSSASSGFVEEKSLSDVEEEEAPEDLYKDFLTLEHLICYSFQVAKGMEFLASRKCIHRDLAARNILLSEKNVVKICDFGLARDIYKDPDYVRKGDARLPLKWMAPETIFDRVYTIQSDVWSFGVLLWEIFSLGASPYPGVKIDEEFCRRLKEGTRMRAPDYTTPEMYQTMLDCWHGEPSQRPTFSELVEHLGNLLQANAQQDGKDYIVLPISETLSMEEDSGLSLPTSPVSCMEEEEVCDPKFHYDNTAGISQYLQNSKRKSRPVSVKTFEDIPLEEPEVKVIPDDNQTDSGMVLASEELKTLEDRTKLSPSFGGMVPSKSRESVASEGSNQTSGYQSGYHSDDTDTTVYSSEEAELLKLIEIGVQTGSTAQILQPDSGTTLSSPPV
Adenosine receptor A2a, sequence (P29274 whole entry): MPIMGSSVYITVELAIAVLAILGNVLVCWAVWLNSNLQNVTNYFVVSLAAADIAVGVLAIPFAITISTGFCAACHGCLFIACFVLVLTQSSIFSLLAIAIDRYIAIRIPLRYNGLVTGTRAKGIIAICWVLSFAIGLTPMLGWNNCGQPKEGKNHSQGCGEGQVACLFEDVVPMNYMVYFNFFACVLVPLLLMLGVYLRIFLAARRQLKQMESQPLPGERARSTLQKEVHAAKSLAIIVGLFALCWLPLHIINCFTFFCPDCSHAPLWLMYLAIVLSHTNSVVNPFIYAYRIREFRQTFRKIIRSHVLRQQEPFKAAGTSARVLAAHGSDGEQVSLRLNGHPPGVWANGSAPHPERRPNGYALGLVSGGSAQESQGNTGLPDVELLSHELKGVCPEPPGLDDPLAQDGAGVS
3',5'-cyclic-AMP phosphodiesterase 4D, sequence (Q08499 whole entry): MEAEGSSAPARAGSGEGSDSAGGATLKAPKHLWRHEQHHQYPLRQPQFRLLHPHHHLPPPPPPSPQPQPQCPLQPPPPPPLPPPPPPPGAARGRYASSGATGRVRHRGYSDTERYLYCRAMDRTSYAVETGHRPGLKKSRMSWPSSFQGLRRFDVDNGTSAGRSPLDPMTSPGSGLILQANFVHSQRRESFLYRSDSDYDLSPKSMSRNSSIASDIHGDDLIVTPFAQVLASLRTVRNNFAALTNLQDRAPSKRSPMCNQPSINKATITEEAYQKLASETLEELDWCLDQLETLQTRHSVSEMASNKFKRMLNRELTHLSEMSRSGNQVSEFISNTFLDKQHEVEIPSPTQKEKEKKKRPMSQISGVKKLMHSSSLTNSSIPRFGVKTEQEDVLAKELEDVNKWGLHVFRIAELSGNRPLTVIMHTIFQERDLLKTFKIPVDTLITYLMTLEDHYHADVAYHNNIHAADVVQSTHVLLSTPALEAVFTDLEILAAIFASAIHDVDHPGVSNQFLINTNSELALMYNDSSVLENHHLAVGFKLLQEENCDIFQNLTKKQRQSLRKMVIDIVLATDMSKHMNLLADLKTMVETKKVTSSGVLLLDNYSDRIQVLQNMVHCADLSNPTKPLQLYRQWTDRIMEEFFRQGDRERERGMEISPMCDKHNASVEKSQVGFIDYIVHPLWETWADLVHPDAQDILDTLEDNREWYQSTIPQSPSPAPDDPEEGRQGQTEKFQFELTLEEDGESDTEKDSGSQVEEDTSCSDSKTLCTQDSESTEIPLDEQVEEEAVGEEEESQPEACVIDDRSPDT

In the case of `O=C(O)c1cccc(-c2noc(-c3ccccc3F)n2)c1`, the concentration at half-maximal activity (AC50) (on Mu-type opioid receptor; in experiment [1]; at Adenosine receptor A2a; in experiment [2]; in [3]; in experiment [4]) was above 30 µM in each case. Further, the AC50 in experiment [5] was 5.3 µM; in experiment [6], above 30 µM; in experiment [7] it was above 30 µM; in [8], above 30 µM; in experiment [9], above 30 µM.
